The text below walks through data of ChEMBL document CHEMBL1135153, “Cephalosporin-derived inhibitors of beta-lactamase. Part 4: The C3 substituent” (Bioorg Med Chem Lett, 2002).

Chain of Beta-lactamase (P05364 whole entry): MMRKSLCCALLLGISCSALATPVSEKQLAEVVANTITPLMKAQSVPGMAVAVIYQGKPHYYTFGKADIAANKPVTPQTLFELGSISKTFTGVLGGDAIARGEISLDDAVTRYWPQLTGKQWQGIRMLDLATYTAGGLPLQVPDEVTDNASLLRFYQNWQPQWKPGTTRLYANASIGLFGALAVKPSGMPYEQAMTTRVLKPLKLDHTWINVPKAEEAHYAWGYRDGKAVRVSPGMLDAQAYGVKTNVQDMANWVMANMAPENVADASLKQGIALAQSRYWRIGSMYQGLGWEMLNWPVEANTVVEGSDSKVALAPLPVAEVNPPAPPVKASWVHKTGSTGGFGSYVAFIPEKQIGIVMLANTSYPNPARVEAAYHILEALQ

The assay addresses Beta-lactamase (Enterobacter cloacae, UniProt P05364). The experiment in a line: Inhibitory activity against Class C beta-lactamase.
Compound `O=C(O)C1=C(Cl)CS(=O)(=O)[C@@H]2/C(=C\c3ccccn3)C(=O)N12` registered a 50% inhibitory concentration (IC50) of 3 nM.

As for `NNC(=O)/C=C/C1=C(C(=O)O)N2C(=O)/C(=C/c3ccccn3)[C@H]2S(=O)(=O)C1`, the IC50 worked out at 1100 nM.

The compound `O=C(/C=C/C1=C(C(=O)O)N2C(=O)/C(=C/c3ccccn3)[C@H]2S(=O)(=O)C1)NCCO` came in with a half-inhibitory concentration (IC50) of 212 nM.

As to `CSC1=C(C(=O)O)N2C(=O)/C(=C/c3ccccn3)[C@H]2S(=O)(=O)C1`, inhibition was half-maximal at 59 nM (IC50).

As to `NC(=O)/C=C/C1=C(C(=O)O)N2C(=O)/C(=C/c3ccccn3)[C@H]2S(=O)(=O)C1`, 22 nM corresponded to half-maximal inhibition (IC50).

As to `O=C(O)C1=C(Br)CS(=O)(=O)[C@@H]2/C(=C\c3ccccn3)C(=O)N12`, the concentration for half-maximal inhibition (IC50) is 2.9 nM.

The compound `O=C(/C=C/C1=C(C(=O)O)N2C(=O)/C(=C/c3ccccn3)[C@H]2S(=O)(=O)C1)Nc1ccc(O)cc1` returned an IC50 of 35 nM.

For `O=C(O)C1=C(I)CS(=O)(=O)[C@@H]2/C(=C\c3ccccn3)C(=O)N12`, the concentration for half-maximal inhibition (IC50) was found to be 4.7 nM.

`O=C(/C=C/C1=C(C(=O)O)N2C(=O)/C(=C/c3ccccn3)[C@H]2S(=O)(=O)C1)NCc1ccccc1` registered an IC50 of 110 nM.

As for `O=C(/C=C/C1=C(C(=O)O)N2C(=O)/C(=C/c3ccccn3)[C@H]2S(=O)(=O)C1)Nc1c(F)c(F)c(F)c(F)c1F`, the concentration for half-maximal inhibition (IC50) stood at 127 nM.

Consider `O=C(O)CNC(=O)/C=C/C1=C(C(=O)O)N2C(=O)/C(=C/c3ccccn3)[C@H]2S(=O)(=O)C1`, for which 310 nM corresponded to half-maximal inhibition (IC50).

Take `O=C(/C=C/C1=C(C(=O)O)N2C(=O)/C(=C/c3ccccn3)[C@H]2S(=O)(=O)C1)NCC(F)(F)F`: the concentration for half-maximal inhibition (IC50) is 1180 nM.

Compound `O=C(O)C1=C(c2ccccc2)CS(=O)(=O)[C@@H]2/C(=C\c3ccccn3)C(=O)N12` returned an IC50 of 38 nM. Against the preceding compound, the IC50 is about 31-fold lower.

`O=C(/C=C/C1=C(C(=O)O)N2C(=O)/C(=C/c3ccccn3)[C@H]2S(=O)(=O)C1)NC1CC1` registered an IC50 of 824 nM.

For the compound `O=C(O)C1=C(Sc2ccccc2)CS(=O)(=O)[C@@H]2/C(=C\c3ccccn3)C(=O)N12`, the 50% inhibitory concentration (IC50) was 21.7 nM.

`CS(=O)(=O)C1=C(C(=O)O)N2C(=O)/C(=C/c3ccccn3)[C@H]2S(=O)(=O)C1` displayed an IC50 of 90.7 nM. Against the preceding compound, the IC50 is about 4.2-fold higher.

The compound `O=C(O)C1=C(c2cccs2)CS(=O)(=O)[C@@H]2/C(=C\c3ccccn3)C(=O)N12` showed a half-inhibitory concentration (IC50) of 40.3 nM.

Consider `NCCCNC(=O)/C=C/C1=C(C(=O)O)N2C(=O)/C(=C/c3ccccn3)[C@H]2S(=O)(=O)C1`, for which half-maximal inhibition (IC50) was put at 4200 nM. Compared with the last compound, the IC50 is about 100-fold higher.

Turning to `N=C(N)NCCNC(=O)/C=C/C1=C(C(=O)O)N2C(=O)/C(=C/c3ccccn3)[C@H]2S(=O)(=O)C1`, the half-maximal inhibitory concentration (IC50) amounted to 5.5 nM.

The compound `O=C(O)C1=C(S(=O)(=O)c2ccccc2)CS(=O)(=O)[C@@H]2/C(=C\c3ccccn3)C(=O)N12` returned a concentration for half-maximal inhibition (IC50) of 174 nM.

`CN1CCN(C(=O)/C=C/C2=C(C(=O)O)N3C(=O)/C(=C/c4ccccn4)[C@H]3S(=O)(=O)C2)CC1` returned a concentration for half-maximal inhibition (IC50) of 6340 nM.

`O=C(/C=C/C1=C(C(=O)O)N2C(=O)/C(=C/c3ccccn3)[C@H]2S(=O)(=O)C1)NO`: half-maximal inhibition (IC50) was put at 128 nM.

Consider `O=C(O)C1=C(C(=O)O)N2C(=O)/C(=C/c3ccccn3)[C@H]2S(=O)(=O)C1`, for which inhibition was half-maximal at 32 nM (IC50).

For the compound `O=C(O)C1=CCS(=O)(=O)[C@@H]2/C(=C\c3ccccn3)C(=O)N12`, it took 116 nM to reach half-maximal inhibition (IC50).

On to `O=C(O)C1=C(F)CS(=O)(=O)[C@@H]2/C(=C\c3ccccn3)C(=O)N12`, for which half-maximal inhibition (IC50) required 11 nM.

Usually IC50 stands for the concentration needed to halve the response being measured. Low readings indicate inhibition by little substance, high ones a need for much substance.
